Results published in article PMC11206507, “Unraveling the Impact of Six Pentacyclic Triterpenes Regulating Metabolic Pathways on Lung Carcinoma Cells” (Pharmaceuticals, 2024).
Where two headings read alike, the source gives them in different places.

Experiments:
NSCLC A549 cells [1] = assay: MTS/PMS cell viability, A549; assay type: cell-based, human; as to TI > 1: key: '✔' means induction; '-' means non-induction of any of the tested processes
Protocol: A similar procedure was performed to determine the IC50 of the triterpenes in a normal lung fibroblast cell line (MRC5). In brief, the A549 and MRC5 cells were seeded into 96-well plates at a density of 1 × 10^5 cells/mL in supplemented DMEM medium. […] Then, 10 uL of the MTS reagent from the CellTiter 96® Aqueous Non-Radioactive Cell Proliferation Assay (Promega G5421) was added to each well. Then, we incubated the plates at 37 °C and in a 5% CO2 atmosphere for 1 h. After incubation, the absorbance was measured at 492 nm (n = 8) in a microplate reader spectrophotometer (Thermoscientific Multiskan FC). The cell viability was calculated as follows:% Viability = (sample absorbance − sample media absorbance)/(untreated cells’ absorbance − untreated cells’ media absorbance) × 100
The cell viability data were presented by plotting the values with an average of eight measurements for each treatment (mean ± SD) in at least three independent experiments. The IC50 values were calculated with the GraphPad Prism 9 software (Prism 9; GraphPad by Dotmatics, San Diego, CA, USA) using the dose–response curve.

[2] = MTS/PMS cell viability, MRC5; assay type: cell-based; details: human, MRC5 normal lung fibroblast cells
Protocol: The 50% inhibitory concentration (IC50) of some of these triterpenes in A549 NSCLC cells were previously determined by us. A similar procedure was performed to determine the IC50 of the triterpenes in a normal lung fibroblast cell line (MRC5). In brief, the A549 and MRC5 cells were seeded into 96-well plates at a density of 1 × 10^5 cells/mL in supplemented DMEM medium. The cells were treated with specific concentrations (A549: 5, 10, 25, 50, 75, 100, 125,150, 175, 200 μM; MRC5: 5, 10, 25, 50, 75, 100 μM) of the triterpenes and incubated for 24 h. Then, 10 uL of the MTS reagent from the CellTiter 96® Aqueous Non-Radioactive Cell Proliferation Assay (Promega G5421) was added to each well. Then, we incubated the plates at 37 °C and in a 5% CO2 atmosphere for 1 h. After incubation, the absorbance was measured at 492 nm (n = 8) in a microplate reader spectrophotometer (Thermoscientific Multiskan FC). The cell viability was calculated as follows:% Viability = (sample absorbance − sample media absorbance)/(untreated cells’ absorbance − untreated cells’ media absorbance) × 100
The cell viability data were presented by plotting the values with an average of eight measurements for each treatment (mean ± SD) in at least three independent experiments. The IC50 values were calculated with the GraphPad Prism 9 software (Prism 9; GraphPad by Dotmatics, San Diego, CA, USA) using the dose–response curve. The data were normalized by the non-linear fit of the log (drug inhibition) vs. normalized response variable slope to obtain the best fit IC50 and R-squared values.

[3] = system: DNA damage machinery in A549 cells; assay: DNA damage assay (anti-pH2AX / anti-pATM, flow cytometry); assay type: cell-based, human; details: A549, IC50, 24 h, vs untreated cells
Protocol: (§1) We used flow cytometry to analyze several cellular mechanistic pathways in A549 cells after incubation with the triterpenes. In general, the cells were seeded in a 6-well plate at a density of 1 × 10^6 cells/mL and incubated for 24 h in supplemented DMEM. After 24 h, the A549 cells were treated with the triterpenes, following each manufacturer’s protocol. All of the following experiments were performed in a Muse® Cell Analyzer (EMD Millipore Corporation, Temecula, CA). The instrument was calibrated before each assay using the Muse® System Check Kit (Luminex MCH100101, Luminex Corporation). Each assay was run at least in two independent experiments. For each experiment, all samples were analyzed in triplicate in the instrument and the capillary line was washed after each sample run to avoid artifacts. In addition, to address the issue of cell doublets, we used the Muse® Cell Dispersal Reagent (Luminex Corporation) in all experiments. The concentration of the triterpenes in each assay was selected depending on the cellular concentration necessary to generate the gain signal in the instrument. This means that we attempted to select concentrations avoiding excessive cytotoxicity to accurately determine the respective signal from each assay.
Then, the A549 cells were scraped and centrifuged. The pellet was suspended in the assay buffer from the Luminex MCH200107 kit (Luminex Corporation). […]

LC3-II = assay: Autophagy induction assay (LC3 antibody, flow cytometry); assay type: cell-based, human; details: for Autophagic response (in words): A549, IC25, 24 h, vs controls (untreated ratio 0.8, starving ratio 1)
Protocol: as §1
The Muse® Autophagy LC3 Antibody-Based Kit (Luminex MCH200109, Luminex Corporation) was used to determine autophagy activation by monitoring lipidated LC3-II. After the A549 cells were treated with the triterpenes (IC25) for 24 h, autophagy reagent A was added for 4 h to prevent the lysosomal degradation of LC3-II. Then, the cells were detached and centrifuged. The pellet was suspended and incubated for 30 min in the autophagy reagent B containing anti-LC3-II mouse monoclonal antibody. Finally, the cell pellet was washed and suspended in fresh assay buffer for measurement. The autophagy response was calculated using the following formula:
Autophagy ratio = mean autophagy value of treated or untreated cells/mean autophagy value of starving cells.
The starving cells were labeled ‘No supp’ as non-supplemented cells. These served as the positive signal for autophagy and were designated a ratio of 1 since they were compared to themselves. A ratio ≥1 indicates the activation of the autophagic response.

MAPK/PI3K = MAPK/PI3K protein expression (dual pathway activation kit, flow cytometry); assay type: cell-based, human; details: for MAPK/PI3K expression (in words): A549, IC25, 24 h, vs untreated cells; for MAPK/PI3K inhibition: summary, NSCLC A549 cells; as to MAPK/PI3K inhibition: key: '✔' means induction; '-' means non-induction of any of the tested processes
Protocol: as §1
The Muse® P13K/MAPK Dual Pathway Activation Kit (Luminex MCH200108, Luminex Corporation) was used to determine MAPK/PI3K expression. After the incubation treatment with the triterpenes (IC25) for 24 h, the A549 cells were scraped, centrifuged, and washed once with 1× PBS. Next, the fixation buffer was incubated for 10 min and then the permeabilization buffer for another 10 min. Both incubations were performed on ice. Later, the antibody cocktail containing anti-phospho-Akt and anti-phospho-ERK1/2 was incubated for 30 min. Afterward, the cell pellet was washed and suspended in fresh assay buffer for measurement.

NSCLC A549 cells [4] = system: NSCLC A549 cells; design: method as in PMID 31338398; details: cited from earlier work; for IC50: 24 h, MTS/PMS, already obtained by the authors; for Cytotoxicity in A549 cells at the highest concentration: 100 μM
A549 cells [5] = assay: Total ROS production assay (DCF); assay type: cell-based, human; details: A549, IC25 (CisPt 25 μM), 24 h
Protocol: The production of total ROS was determined using the 2′,7′-dichlorodihydrofluorescein diacetate (DCF) fluorescent dye. A549 cells were seeded in a concentration of 1 × 10^5 cells/mL into black 96-well plates with a clear bottom. After 24 h, the cells were incubated with the triterpenes (IC25) and controls for 24 h. Then, 50 μL of DCF (10 μM) was added to each well and they were incubated for 1 h at room temperature. Then, the fluorescence of each well was measured (Ex/Em = 485/530 nm) in the Tecan® M200 plate reader.
This experiment was performed in triplicate. All data were expressed by plotting the values as an average of three measurements for each treatment condition as the mean ± SD and analyzed with the software GraphPad Prism 9. Statistical analysis was performed using one-way analysis of variance (ANOVA) to compare the mean value of each treated type of cells versus the control (untreated cells). The statistical significance defined by the software for p values was **** < 0.0001, *** from 0.001 to 0.0001, ** from 0.001 to 0.01, * from 0.01 to 0.05, and non-significant (ns) ≥ 0.05.

PDL1 gene = assay: RT-qPCR gene expression of PDL1; assay type: cell-based, human; details: A549, IC25 (CisPt 25 μM), 24 h
Protocol: (§2) A549 cells were seeded into 6-well plates at a density of 1 × 10^6 cells/mL in supplemented DMEM. The cells were incubated with the triterpenes (IC25) for 24 h. Total RNA was extracted from the cells using the TRIzol reagent (Invitrogen Corporation, Carlsbad, CA, USA) according to the manufacturer’s instructions. The purity and concentration of RNA were assessed using a NanoDrop spectrophotometer (Thermo Fisher Scientific). cDNA was synthesized using the High-Capacity cDNA Reverse Transcription Kit (Applied Biosystems) according to the manufacturer’s instructions.
(§3) RT-qPCR was performed on a StepOnePlus® Real-Time PCR System (Thermo Fisher Scientific) using TaqMan Gene Expression Assays (Applied Biosystems) for PDL1 (CD274; Assay ID: Hs01125297_m1), ribonucleotide reductase (RR) M1 (Assay ID: Hs01040697_m1), and STAT3 (Assay ID: Hs01047586_g1). Each reaction consisted of 10 ng of cDNA, TaqMan Gene Expression Master Mix (Applied Biosystems), and TaqMan probes. The PCR cycling conditions were as follows: 95 °C for 10 min, followed by 40 cycles of 95 °C for 15 s and 60 °C for 60 s. The relative gene expression levels were calculated using the ΔΔCt method. GAPDH (Assay ID: Hs02758991_g1) was used as the endogenous control for normalization.
(§4) All RT-qPCR experiments were performed at least in triplicate. All data were expressed by plotting values with an average of four measurements for each treatment condition as the mean ± SD and analyzed with the software GraphPad Prism 9. Statistical analysis was performed using one-way analysis of variance (ANOVA) to compare the mean value of each treated type of cells versus the control (untreated cells). The statistical significance defined by the software for p values was **** < 0.0001, *** from 0.001 to 0.0001, ** from 0.001 to 0.01, * from 0.01 to 0.05, and non-significant (ns) ≥ 0.05.

RRM1 gene = assay: RT-qPCR gene expression of ribonucleotide reductase M1; assay type: cell-based, human
Protocol: as §2
as §3, with “GAPDH (Assay ID: Hs02758991_g1) was used as the endogenous control for normalization.” left out
All RT-qPCR experiments were performed at least in triplicate. All data were expressed by plotting values with an average of four measurements for each treatment condition as the mean ± SD and analyzed with the software GraphPad Prism 9. […]

A549 cells [6] = assay: Mitochondrial ROS production assay (DHE, flow cytometry); assay type: cell-based, human; details: A549, IC25, 24 h; group average
Protocol: as §1
The production of reactive oxygen species (ROS) by mitochondria was determined using the Oxidative Stress Kit (Luminex MCH100111, Luminex Corporation). After the A549 cells were treated with the triterpenes (IC25) for 24 h, the cells were scraped and centrifuged. For ROS, the cell pellet was incubated with dihydroethidium (DHE) dye for 1 h at 37 °C.

STAT3 gene = assay: RT-qPCR gene expression of STAT3; assay type: cell-based, human
Protocol: as §2, §3, §4

C[C@H]1[C@H](C)CC[C@]2(C(=O)O)CC[C@]3(C)C(=CC[C@@H]4[C@@]5(C)C[C@@H](O)[C@H](O)[C@@](C)(CO)[C@@H]5CC[C@]43C)[C@H]12 [AsA, asiatic acid]
TI (NSCLC A549 cells [1]; TI = MRC5 IC50/A549 IC50, >1 means higher selectivity): 0.64
TI > 1 (NSCLC A549 cells [1]; summary, MRC5 vs A549): -
IC50 at 24 h [2]: 38 ± 2 µM
Activation of the DNA damage machinery (in words) [3]: caused the activation of the DNA damage machinery
Autophagic response (in words) (LC3-II): induced an autophagic response similar to that of CisPt
Autophagy inhibition (LC3-II; summary, NSCLC A549 cells): -
MAPK/PI3K expression (in words) (MAPK/PI3K): did not affect the expression of MAPK/PI3K
MAPK/PI3K inhibition (MAPK/PI3K): -
IC50 (NSCLC A549 cells [4]): 59 ± 6 µM

N.N.[Cl][Pt][Cl] [CisPt, cis-diamminedichloroplatinum (II), reference compound]
Total ROS production (in words) (A549 cells [5]): not statistically significant
PDL1 gene expression (in words) (PDL1 gene): clearly upregulated PDL1

CC1(C)CC[C@]2(C(=O)O)CC[C@]3(C)C(=CC[C@@H]4[C@@]5(C)CC[C@H](O)C(C)(C)[C@@H]5CC[C@]43C)[C@@H]2C1 [OleA, oleanolic acid]
TI (NSCLC A549 cells [1]): 2
IC50 at 24 h [2]: 86 ± 2 µM
RRM1 gene expression (in words) (RRM1 gene; A549, IC25, 24 h, vs untreated cells): did not downregulate RR
RRM1 downregulation (RRM1 gene; summary, NSCLC A549 cells): -
Amount of mROS, on average of the three named triterpenes, compared to the untreated cells (A549 cells [6]): 26.2%
Autophagic response (in words) (LC3-II): inhibit the LC3-II activity
MAPK/PI3K expression (in words) (MAPK/PI3K): did not affect the expression of MAPK/PI3K
MAPK/PI3K inhibition (MAPK/PI3K): -
STAT3 gene expression (in words) (STAT3 gene; A549, IC25, 24 h): did not inhibit
STAT3 downregulation (STAT3 gene; summary, NSCLC A549 cells): -
IC50 (NSCLC A549 cells [4]): 43 ± 5 µM

CC(C)CCC[C@@H](C)[C@H]1CC[C@H]2[C@@H]3CC=C4C[C@@H](O)CC[C@]4(C)[C@H]3CC[C@]12C [cholesterol, reference compound]
Cytotoxicity in A549 cells at the highest concentration (NSCLC A549 cells [4]): did not kill A549 cells

CC[C@H](CC[C@@H](C)[C@H]1CC[C@H]2[C@@H]3CC=C4C[C@@H](O)CC[C@]4(C)[C@H]3CC[C@]12C)C(C)C [β-sitosterol, reference compound]
Cytotoxicity in A549 cells at the highest concentration (NSCLC A549 cells [4]): did not kill A549 cells
